In patent publication US6342217B1, “Radiation enhanced gene therapy for tumors expressing a gene for a viral pyrimidine kinase in the presence of a 5′-halogenated pyrimidine” (Human Gene Therapy Research Institute, priority 1995, dated 2002):

How the values were obtained:
[1] = tested on: A375NV (no vector) melanoma cells; assay: in vitro clonogenic assay of radiosensitivity, non-transduced cells; format: cell-based, human
From the text: (§1) For this example, a vector, termed LNSTK was kindly provided by F. Moolten which contained the HS-tk gene driven by the SV40 early promoter. Other transformation vectors containing the HS-tk retroviral vector such as the LTKOSN.2 vector by the Human Gene Therapy Research Institute (Des Moines, Iowa) are commercially available. Another such vector is the GITkSvNa vector by Genetic Therapy Inc., Gaithersburg, Md. A human A375 melanoma cell line was used because of its ease of growth and rapid colony formation in a clonogenic assay. The survival of A375NV (no vector) and A375TK (transduced with LNStk vector) after 30 GY of gamma-radiation with 0,1, or 10 µg/ml IdC is shown in FIG. 2.
(§2) […] cells were plated in a 100 cm^2 tissue culture dish in free media. The next day drug was added in the appropriate concentration. 48 hours later the cells were irradiated with 30 GY from a 250 KV X-ray machine as a single dose. The cells were then trypsinized and replated at between 2.5×10^2 and 1×10^6 cells per plate in triplicate for each data point. After twelve days the cells were fixed, stained and macroscopic colonies containing […] were counted. Measurements in the graph were corrected for plating efficiency. […] Irradiated A375 NV preincubated with 0,1 or 10 μg/ml of IdC had 18.6, 19.3 and 18.3 percent survival respectively. Irradiated A375 tk cells preincubated with 0,1, or 10 μg/ml of IdC had 15.7, 9.9 and 4.4 percent survival respectively.
(§3) In FIG. 3 another experiment is shown, design similar to Example 1. This experiment compared radio sensitivity of A375 NV and A375 tk cells after preincubation with 10 μg/ml of BrdC for 48 hours before X-ray exposure. […] Survival percentages for cells incubated with 10 μg of BrdC and then irradiated with 30 Gy were divided by the survival fraction of cells incubated with 10 μg/ml of BrdC and then mock irradiated.

[2] = tested on: A375TK (transduced with LNStk vector) melanoma cells; assay: in vitro clonogenic assay of radiosensitivity, HS-tk transduced cells; format: cell-based, human; settings: for survival (figure legend): cells transformed with the STK vector, drug and radiation
From the text: as §1, §2, §3

[3] = target: mammalian deoxycytidine kinase (Homo sapiens, UniProt P27707); settings: with respect to mammalian deoxycytidine kinase; cited from earlier work
Chain of mammalian deoxycytidine kinase (P27707 whole entry): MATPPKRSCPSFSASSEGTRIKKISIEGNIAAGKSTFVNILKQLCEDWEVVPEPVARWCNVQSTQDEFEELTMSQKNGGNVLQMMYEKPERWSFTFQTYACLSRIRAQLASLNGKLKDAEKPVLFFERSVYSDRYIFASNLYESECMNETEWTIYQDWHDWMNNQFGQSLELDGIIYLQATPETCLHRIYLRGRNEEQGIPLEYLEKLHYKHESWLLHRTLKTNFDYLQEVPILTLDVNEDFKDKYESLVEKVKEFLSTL

[4] = target: T1, Mammalian thymidine kinase (Homo sapiens, UniProt P04183); settings: cited from earlier work
T1 sequence (P04183 1-234): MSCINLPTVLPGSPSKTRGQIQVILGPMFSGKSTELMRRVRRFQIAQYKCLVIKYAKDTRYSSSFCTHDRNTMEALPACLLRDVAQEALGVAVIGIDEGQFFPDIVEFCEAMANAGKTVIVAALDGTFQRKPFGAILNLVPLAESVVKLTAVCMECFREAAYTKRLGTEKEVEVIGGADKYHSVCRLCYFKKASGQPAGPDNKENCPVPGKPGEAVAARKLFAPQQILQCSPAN

[5] = tested on: mixture of 50% A375 NV and 50% A375 HS-tk cells; assay: clonogenic assay of bystander effect, mixed cells at high density; format: cell-based, human; settings: 10 μg/ml, 30 Gy
Protocol: Without wishing to be bound by any theory it is hypothesized that HSV-tk transduced tumor cells are able to sensitize non transduced tumor cells in their vicinity through a bystander effect via metabolic cooperation. Specifically, cells that are not transduced with HS-tk gene can also be sensitized to radiation. […] These cells were plated at a density of 3×10^6 cells per 100 cm^2 tissue culture dish the afternoon prior to adding 10 μg/ml BrdC to the media. […] In contrast the experimentally obtained survival for this mixture of cells when plated together at high density was only 6.2%.

[6] = target: Herpes pyrimidine nucleoside kinase (HSV-tk) (Human herpesvirus 1, UniProt P0DTH5); settings: with respect to Herpes pyrimidine nucleoside kinase / HSV-tk; cited from earlier work
Chain of Herpes pyrimidine nucleoside kinase (HSV-tk) (P0DTH5 whole entry): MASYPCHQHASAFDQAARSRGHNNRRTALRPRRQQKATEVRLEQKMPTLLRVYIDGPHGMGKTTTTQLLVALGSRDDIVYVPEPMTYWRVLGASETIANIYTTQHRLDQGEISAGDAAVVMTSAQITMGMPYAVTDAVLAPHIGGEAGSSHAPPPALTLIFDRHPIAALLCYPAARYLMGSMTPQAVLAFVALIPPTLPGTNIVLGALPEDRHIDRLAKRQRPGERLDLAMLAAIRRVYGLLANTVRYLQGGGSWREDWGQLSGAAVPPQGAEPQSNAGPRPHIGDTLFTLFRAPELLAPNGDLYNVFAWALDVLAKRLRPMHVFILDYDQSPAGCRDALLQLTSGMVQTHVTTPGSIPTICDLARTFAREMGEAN

mammalian cells = settings: cited from earlier work
[7] = irradiated (30 Gy) A375 tk preincubated with 10 μg/ml, before adjustment
[8] = non irradiated A375 tk, 10 μg/ml drug 48 h, compared to non-irradiated control cells not preincubated with drug

SMILES	survival (figure legend) [2]	percent survival [2, 7] [%]	survival [2, 8] [%]	Km [3] [µM]	phosphorylation by mammalian thymidine kinase [4]	Km [6] [µM]	further results
Nc1nc(=O)n([C@H]2C[C@H](O)[C@@H](CO)O2)cc1Br [BrdC, 5-bromo-2′-deoxycytidine]	less than 10%	2.3	33	2100	cannot phosphorylate	2	survival ([1]; 100% A375 NV plated at 3×10^6 cells per dish (about 90% confluent), 10 μg/ml, 30 Gy): 13.1%; adjusted survival (irradiated survival divided by nonirradiated surviving fraction) ([1]; A375 NV, 10 μg/ml, 30 Gy): 9%; survival ([2]; 100% A375 tk plated at 3×10^6 cells per dish (about 90% confluent), 10 μg/ml, 30 Gy): 3.5%; adjusted survival (irradiated survival divided by nonirradiated surviving fraction) ([2]; A375 tk, 10 μg/ml, 30 Gy): 6.9%; experimentally obtained survival of the mixture ([5]; 50% A375 tk and 50% A375 NV plated together at high density): 6.2%; expected survival of the mixture (half of tk plus half of NV survival) ([5]; 50% A375 tk and 50% A375 NV, theoretical): 8.3%
Nc1ccn([C@H]2C[C@H](O)[C@@H](CO)O2)c(=O)n1 [Deoxycytidine, deoxycytidine, reference compound]	–	–	–	–	–	500	–
Nc1nc(=O)n([C@H]2C[C@H](O)[C@@H](CO)O2)cc1I [IdC, 5-iodo-2′-deoxycytidine]	less than 10%	4.4	54	4000	cannot phosphorylate	2	radiation potentiation in the absence of the HS-tk gene ([1]; IdC 1 or 10 μg/ml, 30 Gy): no degree radiation potentiation was seen; percent survival ([1]; irradiated (30 Gy) A375 NV preincubated with 1 μg/ml): 19.3%; percent survival ([1]; irradiated (30 Gy) A375 NV preincubated with 10 μg/ml): 18.3%; survival ([1]; non irradiated A375 NV, 10 μg/ml drug 48 h, compared to non-irradiated control cells not preincubated with drug): 73%; survival (figure legend) ([1]; nontransformed cells treated with radiation): approximately 50%; percent survival ([2]; irradiated (30 Gy) A375 tk preincubated with 1 μg/ml): 9.9%
O=C1NC(O)CCN1[C@@H]1O[C@H](CO)[C@@H](O)[C@H]1O (some centres unmarked) [Tetrahydrouridine, tetrahydrouridine]	–	–	–	–	–	–	safety in mammalian cells (mammalian cells): safe and non toxic
